In patent US10173999B2, “Cyclic amine derivative and pharmaceutical use thereof” (Toray Industries, Inc., priority 2015, dated 2019):
Where a name gives a salt, the structure may show the parent alone.

Tests used:
[1] = system: mouse partial sciatic nerve ligation model (neuropathic pain); assay: Mouse partial sciatic nerve ligation model (Seltzer model), von Frey test; assay type: in vivo; settings: for persistence of analgesic action: oral administration, von Frey test at 1, 2, 3 h
Description: The mouse partial sciatic nerve ligation model was prepared in accordance with the method of Seltzer et al. (Malmberg et al., Pain, vol. 76, p. 215-222, 1998).
Slc: ICR mice (5 weeks old, male; from Japan SLC, Inc.) or Cr1: CD1 (ICR) mice (5 weeks old, male; from CHARLES RIVER LABORATORIES JAPAN, INC.) were anesthetized with sodium pentobarbital (70 mg/kg, intraperitoneal administration). The sciatic nerve at the femoral region of the right hind paw of each mouse was exposed and triply ligated tightly with silk suture of 8-0 (from NATSUME SEISAKUSHO CO., LTD.) under a stereomicroscope so that only half thickness of the nerve was trapped in the ligature. A group of mice thus treated was designated as a partial sciatic nerve ligation group. A group of mice whose sciatic nerve was just exposed and not ligated was designated as a sham surgery group.
Evaluation of neuropathic pain (hereinafter referred to as von Frey test) was performed as follows. Mice were conditioned for at least one hour in an acrylic cage for measurement (from NATSUME SEISAKUSHO CO. LTD. or SHINANO SEISAKUSHO) placed on a wire net. Thereafter, using a filament (from North Coast Medical or neuroscience) which exerted a pressure of 0.16 g, the mice were subjected to mechanical tactile stimulus by applying the filament to the plantar surface of the right hind paw 3 times, each for 3 seconds, with an interval of 3 seconds.
Seven days after the sciatic nerve ligation surgery, the compound of Example 1, 2, 3, 4, 5, 7, 8, 9, 10, 11, 12 or 13 (10 mg/kg for each of the compounds of Example 1, 2, 3, 4, 5, 8, 10 and 13, 0.01 to 1 mg/kg for the compound of Example 7, 0.01 to 10 mg/kg for the compound of Example 9; 0.001 to 0.1 mg/kg for the compound of Example 11; and 0.01 to 1 mg/kg for the compound of Example 12) or pregabalin as a positive control (10 mg/kg; Bosche Scientific) was dissolved in distilled water and orally administered to mice of the partial sciatic nerve ligation group. The groups of the mice in the partial sciatic nerve ligation mouse to which the compound of Example 1, 2, 3, 4, 5, 7, 8, 9, 10, 11, 12 or 13 was administered were designated as a “partial sciatic nerve ligation+the compound of Example 1” group; a “partial sciatic nerve ligation+the compound of Example 2” group; a “partial sciatic nerve ligation+the compound of Example 3” group; a “partial sciatic nerve ligation+the compound of Example 4” group; a “partial sciatic nerve ligation+the compound of Example 5” group; a “partial sciatic nerve ligation+the compound of Example 7” group; a “partial sciatic nerve ligation+the compound of Example 8” group; a “partial sciatic nerve ligation+the compound of Example 9” group; a “partial sciatic nerve ligation+the compound of Example 10” group; a “partial sciatic nerve ligation+the compound of Example 11” group; a “partial sciatic nerve ligation+the compound of Example 12” group; and a “partial sciatic nerve ligation+the compound of Example 13” group, respectively. The partial sciatic nerve ligation mouse group to which pregabalin was administered was designated as a “partial sciatic nerve ligation+pregabalin” group. A group wherein distilled water was orally administered to the mice of the partial sciatic nerve ligation group was designated as a “partial sciatic nerve ligation+distilled water” group. A group wherein distilled water was orally administered to the mice of the sham surgery group was designated as a “sham surgery+distilled water” group.
The von Frey test was carried out before oral administration of a test compound (pre-value), one hour, two hours, and three hours after the oral administration of a test compound.
Slc: ICR mice (5 weeks old, male; Japan SLC, Inc.) were anesthetized with sodium pentobarbital (70 mg/kg, intraperitoneal administration).

[2] = system: human aortic smooth muscle cells (T/G HA-VSMG); assay: Inducibility of cytoplasmic vacuolation in human aortic smooth muscle cells; assay type: cell-based; settings: Treatment time: 24 hours
Description: As a test compound, the compound of Example 3, 9, 11, 12 or compounds of Comparative Examples 2 to 6 were used. Canine aortic smooth muscle cells (Canine Aortic Smooth Muscle Cells, supply source: Toyobo Co., Ltd.) or human aortic smooth muscle cells of (T/G HA-VSMG, supply source: ATCC) were treated with a test compound (1.0 or 1.2 mmol/L in concentration) for 24 hours or 2 weeks. The cells were stained with HE, immunohistochemically for LAMP-2 or toluidine blue, and thereafter the presence or absence of cytoplasmic vacuolation was determined by using an optical microscope.

[3] = system: fibromyalgia syndrome model rats; assay: Rat fibromyalgia syndrome model (acidic saline), allodynia by von Frey filament; assay type: in vivo; settings: Day 7, pregabalin 10 mg/kg
Description: To prepare a fibromyalgia syndrome model rat (Sluka et al., Journal of Pharmacology and Experimental Therapeutics, vol. 302, p. 1146-1150, 2002; Nagakura et al., Pain, vol. 146, p. 26-33, 2009; Sluka et al., Pain, vol. 146, p. 3-4, 2009), which is generally employed widely in basic research for fibromyalgia syndrome, acidic saline (100 μL) adjusted to pH 4.0 was intramuscularly injected to the gastrocnemius muscle of the right hind paw of Crl: CD(SD) rat (6 to 7 weeks old, male; from CHARLES RIVER LABORATORIES JAPAN, INC.) under continuous inhalation anesthesia with isoflurane, twice (once in each day of Day 1 and Day 6, wherein Day 1 was the date on which the acidic saline was initially administrated). The rats thus prepared were raised in a breeding room controlled at an indoor temperature of 21 to 25° C. and an indoor humidity of 40 to 70% under the conditions of voluntary intake of food and water. In the same manner, rats to which physiological saline in place of acidic saline was intramuscularly injected were raised. The rats thus raised and not afflicted with fibromyalgia syndrome (“physiological saline+distilled water” group in FIG. 13) were also used in the experiment.
Seven days after the initial administration of acidic saline, allodynia in each rat was measured. […] Note that, measurement of allodynia was performed by use of a von Frey filament (from North Coast Medical) in accordance with the method described in a known literature (Chaplan et al., Journal of Neuroscience Methods, vol. 53, p. 55-63, 1994).
The fibromyalgia syndrome model rats thus obtained are divided into groups such that the 50% response threshold (mean value of the right hind paw and the left hind paw) of the individual groups became equal, and a test compound was administered to the fibromyalgia syndrome model rats on Day 7 after the initial administration of acidic saline.
The compound of Example 11 (0.1 to 10 mg/kg) was dissolved in distilled water and then orally administered to fibromyalgia syndrome model rats (“acidic saline+the compound of Example 11” in FIG. 13). Pregabalin serving as a positive control (10 mg/kg; from KEMPROTEC) was dissolved in distilled water and then orally administered (“acidic saline+pregabalin” in FIG. 13). As a control, distilled water was orally administered to fibromyalgia syndrome model rats (“acidic saline+distilled water” in FIG. 13). Furthermore, distilled water was orally administered to rats not afflicted with fibromyalgia syndrome (“physiological saline+distilled water” in FIG. 13). One hour and three hours after the oral administration, allodynia in individual rats was measured to evaluate an analgesic action. At this time, the 50% response threshold value in the measurement of allodynia before oral administration of the test compound on Day 7 after initial administration of acidic saline was defined as the pre-value.
To prepare a fibromyalgia syndrome model rat (Sluka et al., Journal of Pharmacology and Experimental Therapeutics, vol. 302, p. 1146-50, 2002; Nagakura et al., Pain, vol. 146, p. 26-33, 2009; Sluka et al., Pain, vol. 146, p. 3-4, 2009), which is generally employed widely in basic research for fibromyalgia syndrome, acidic saline (100 μL) adjusted to pH 4.0 was intramuscularly injected to the gastrocnemius muscle of the right hind paw of Slc: (SD) rats (6 to 7 weeks old, male; from Japan SLC, Inc.) under continuous inhalation anesthesia with isoflurane, twice (once in each of Day 1 and Day 6, wherein Day 1 was the initial administration date of the acidic saline). The rats thus prepared were raised in a breeding room controlled at an indoor temperature of 21 to 25° C. and an indoor humidity of 40 to 70% under the conditions of voluntary intake of food and water. In the same manner, rats to which physiological saline was intramuscularly injected in place of acidic saline were raised. […]

[4] = oral, 7 days after ligation, 1-3 h after dosing, 10 mg/kg (Ex 1,2,3,4,5,8,10,13, pregabalin), 0.01-1 mg/kg (Ex 7,12), 0.01-10 mg/kg (Ex 9), 0.001-0.1 mg/kg (Ex 11), vs ligation+distilled water, Welch or Shirley-Williams test

Row | Compound | analgesic action in von Frey test (total score) [1, 4] | further results
1 | CC(=O)OC(CC(=O)N1CCC(N(C)C)CC1)c1nccn1C (centres unmarked) [Example 12, 3-(4-(dimethylamino)piperidin-1-yl)-1-(1-methyl-1H-imidazol-2-yl)-3-oxopropyl acetate] | statistically significant analgesic action | persistence of analgesic action [1]: persistence of analgesic action was confirmed; Inducibility of cytoplasmic vacuolation ([2]; Concentration: 1.0 mmol/L): Absent
2 | CN(C)C1CCN(C(=O)CC(O)c2nccn2C(F)F)CC1 (centres unmarked) [Example 10, 3-(1-(difluoromethyl)-1H-imidazol-2-yl)-1-(4-(dimethylamino)piperidin-1-yl)-3-hydroxypropan-1-one] | statistically significant analgesic action | 
3 | CC(C)C[C@H](CN)CC(=O)O [pregabalin] |  | allodynia (50% response threshold) vs acidic saline+distilled water group ([3]; Comparative Example 8: oral, Comparative Example 1 0.1 to 1 mg/kg, 1, 2 and 3 h after dosing): statistically significantly improved; allodynia (50% response threshold) vs acidic saline+distilled water group ([3]; Example 15: oral, Example 11 0.1 to 10 mg/kg, 1 and 3 h after dosing): statistically significantly improved; analgesic action in von Frey test (total score) ([1]; mouse, in vivo): statistically significant analgesic action
4 | CN(C)[C@@H]1CCCN(C(=O)CC(O)c2nccn2C)C1 (some centres unmarked) [Example 4] | statistically significant analgesic action | 
5 | CCCCC(=O)OC(CC(=O)N1CCC(N(C)C)CC1)c1nccn1C (centres unmarked) [Example 13, 3-(4-(dimethylamino)piperidin-1-yl)-1-(1-methyl-1H-imidazol-2-yl)-3-oxopropylpentanoate] | statistically significant analgesic action | 
6 | CN(C)[C@@H]1CCN(C(=O)CC(O)c2nccn2C)C1 (stereo partly drawn) [Example 5, 1-((R)-3-(dimethylamino)pyrrolidin-1-yl)-3-hydroxy-3-(1-methyl-1H-imidazol-2-yl)propan-1-one] | statistically significant analgesic action | 
7 | CN(C)C1CCN(C(=O)CC(O)c2nccn2CC(F)(F)F)CC1 (centres unmarked) [Example 9, 1-(4-(dimethylamino)piperidin-1-yl)-3-hydroxy-3-(1-(2,2,2-trifluoroethyl)-1H-imidazol-2-yl)propan-1-one] | statistically significant analgesic action | persistence of analgesic action [1]: persistence of analgesic action was confirmed; Inducibility of cytoplasmic vacuolation ([2]; Concentration: 1.2 mmol/L): Absent
8 | CN(C)C1CCN(C(=O)CC(O)c2nccn2C)CC1 (centres unmarked) [Example 7, 1-(4-(dimethylamino)piperidin-1-yl)-3-hydroxy-3-(1-methyl-1H-imidazol-2-yl)propan-1-one hydrochloride] |  | analgesic action in von Frey test (total score) ([1]; mouse, in vivo): statistically significant analgesic action; persistence of analgesic action [1]: persistence of analgesic action was confirmed
9 | CCN(C)C1CCN(C(=O)CC(O)c2nccn2C)CC1 (centres unmarked) [Example 1, 1-(4-(ethylmethylamino)piperidin-1-yl)-3-hydroxy-3-(1-methyl-1H-imidazol-2-yl)propan-1-one] | statistically significant analgesic action | 
10 | CCN(CC)C1CCN(C(=O)CC(O)c2nccn2C)CC1 (centres unmarked) [Example 2, 1-(4-(diethylamino)piperidin-1-yl)-3-hydroxy-3-(1-methyl-1H-imidazol-2-yl)propan-1-one] | statistically significant analgesic action | 
11 | CCn1ccnc1C(O)CC(=O)N1CCC(N(C)C)CC1 (centres unmarked) [Example 8, 1-(4-(dimethylamino)piperidin-1-yl)-3-(1-ethyl-1H-imidazol-2-yl)-3-hydroxypropan-1-one] | statistically significant analgesic action | 
12 | CN1CCN(C2CCN(C(=O)CC(O)c3nccn3C)CC2)CC1 (centres unmarked) [Example 3, 3-hydroxy-3-(1-methyl-1H-imidazol-2-yl)-1-(4-(4-methylpiperazin-1-yl)piperidin-1-yl)propan-1-one] | statistically significant analgesic action | Inducibility of cytoplasmic vacuolation ([2]; Concentration: 1.2 mmol/L): Absent
